# Results: patent US20200024278A1, “COMPOSITION COMPRISING ANTIBIOTIC COMPOUND AND AN HETEROCYCLIC COMPOUND AND THEIR USE IN PREVENTING OR TREATING BACTERIAL INFECTIONS” (MUTABILIS, priority 2016, published 2020)
# Read-outs that look alike come from different tables or passages of the source.
# Experiments:
# Test in all cases: MIC, broth microdilution (CLSI), substance alone or ATB combined with compound at 4 or 8 μg/mL
# KPN 6299 = format: cell-based, K. pneumoniae; conditions: for MIC: Klebsiella pneumoniae
# Outline: (§1)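 CLSI M7-A7 broth microdilution. ca-MHB, 5·10^5 CFU/mL log-phase cells, 16-20 h, 35° C, ambient air. Fosfomycin wells + 25 μg/ml glucose-6-phosphate. Visual MIC read.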
# KPN UFR42 = format: cell-based, K. pneumoniae; conditions: KPN UFR42
# Outline: as §1
# KPN BAA-1898 = format: cell-based, K. pneumoniae; conditions: KPN BAA-1898; for MIC: Klebsiella pneumoniae, BAA1898
# Outline: as §1
# ECO UFR39 = format: cell-based, E. coli; conditions: ECO UFR39; for MIC: Escherichia coli
# Outline: as §1
# ECO 190317 = format: cell-based, E. coli; conditions: ECO 190317; for MIC: Escherichia coli
# Outline: as §1
# SAU 29213 = format: cell-based, S. aureus; conditions: SAU 29213; with Example 1 @8 μg/ml
# Outline: as §1
# [1] = antibiotic alone, read-out: MIC ATB alone
structure (smiles),measurement,setting,value
"CC1(C)S[C@@H]2[C@H](NC(=O)[C@H](N)c3ccc(O)cc3)C(=O)N2[C@H]1C(=O)O [AMX, Amoxicillin, reference compound]",MIC,KPN 6299; [1],> 1020 µg/mL
same,MIC,"KPN 6299; substance alone, read-out: MIC",> 1020 µg/mL
same,MIC ATB combined with Example 1 @8 μg/ml,KPN 6299; with Example 1 @8 μg/ml,>32 µg/mL
same,MIC ATB combined with Example 1 @8 μg/ml,KPN 6299; with Example 1 at 8 μg/ml,>32 µg/mL
same,MIC ATB combined with Example 7 @8 μgml,KPN 6299; with Example 7 at 8 μg/ml,0.5 µg/mL
same,MIC ATB combined with Example 9 @4 μg/ml,KPN 6299; with Example 9 @4 μg/ml,<=0.5 μg/mL
same,MIC ATB combined with Example 9 @4 μg/ml,KPN 6299; with Example 9 at 4 μg/ml,<0.031 µg/mL
same,MIC ATB combined with Example 11 @8 μg/ml,KPN 6299; with Example 11 at 8 μg/ml,<0.031 µg/mL
same,MIC ATB combined with Example 12 @8 μg/ml,KPN 6299; with Example 12 at 8 μg/ml,<0.031 µg/mL
same,MIC ATB combined with Example 13 @8 μg/ml,KPN 6299; with Example 13 at 8 μg/ml,2 µg/mL
same,MIC ATB combined with Example 14 @8 μg/ml,KPN 6299; with Example 14 at 8 μg/ml,<0.031 µg/mL
same,MIC ATB combined with Example 15 @4 μgml,KPN 6299; with Example 15 at 4 μg/ml,<0.031 µg/mL
same,MIC ATB combined with Example 16 @4 μg/ml,KPN 6299; with Example 16 at 4 μg/ml,<0.031 µg/mL
same,MIC ATB combined with Example 1 @8 μg/ml,KPN UFR42; with Example 1 @8 μg/ml,>32 µg/mL
same,MIC ATB combined with Example 1 @8 μg/ml,KPN UFR42; with Example 1 at 8 μg/ml,>32 µg/mL
same,MIC ATB combined with Example 7 @8 μgml,KPN UFR42; with Example 7 at 8 μg/ml,>32 µg/mL
same,MIC ATB combined with Example 9 @4 μg/ml,KPN UFR42; with Example 9 @4 μg/ml,>32 µg/mL
same,MIC ATB combined with Example 9 @4 μg/ml,KPN UFR42; with Example 9 at 4 μg/ml,>32 µg/mL
same,MIC ATB combined with Example 11 @8 μg/ml,KPN UFR42; with Example 11 at 8 μg/ml,<0.031 µg/mL
same,MIC ATB combined with Example 12 @8 μg/ml,KPN UFR42; with Example 12 at 8 μg/ml,<0.031 µg/mL
same,MIC ATB combined with Example 13 @8 μg/ml,KPN UFR42; with Example 13 at 8 μg/ml,>32 µg/mL
same,MIC ATB combined with Example 14 @8 μg/ml,KPN UFR42; with Example 14 at 8 μg/ml,<0.031 µg/mL
same,MIC ATB combined with Example 15 @4 μgml,KPN UFR42; with Example 15 at 4 μg/ml,<0.031 µg/mL
same,MIC ATB combined with Example 16 @4 μg/ml,KPN UFR42; with Example 16 at 4 μg/ml,<0.031 µg/mL
same,MIC,"KPN UFR42; Klebsiella pneumoniae, antibiotic alone, read-out: MIC ATB alone",> 256 µg/mL
same,MIC ATB combined with Example 1 @8 μg/ml,KPN BAA-1898; with Example 1 @8 μg/ml,>32 µg/mL
same,MIC ATB combined with Example 1 @8 μg/ml,KPN BAA-1898; with Example 1 at 8 μg/ml,>32 µg/mL
same,MIC ATB combined with Example 7 @8 μgml,KPN BAA-1898; with Example 7 at 8 μg/ml,>32 µg/mL
same,MIC ATB combined with Example 9 @4 μg/ml,KPN BAA-1898; with Example 9 @4 μg/ml,<0.031 µg/mL
same,MIC ATB combined with Example 9 @4 μg/ml,KPN BAA-1898; with Example 9 at 4 μg/ml,<0.031 µg/mL
same,MIC ATB combined with Example 11 @8 μg/ml,KPN BAA-1898; with Example 11 at 8 μg/ml,<0.031 µg/mL
same,MIC ATB combined with Example 12 @8 μg/ml,KPN BAA-1898; with Example 12 at 8 μg/ml,<0.031 µg/mL
same,MIC ATB combined with Example 13 @8 μg/ml,KPN BAA-1898; with Example 13 at 8 μg/ml,>32 µg/mL
same,MIC ATB combined with Example 14 @8 μg/ml,KPN BAA-1898; with Example 14 at 8 μg/ml,<0.031 µg/mL
same,MIC ATB combined with Example 15 @4 μgml,KPN BAA-1898; with Example 15 at 4 μg/ml,<0.031 µg/mL
same,MIC ATB combined with Example 16 @4 μg/ml,KPN BAA-1898; with Example 16 at 4 μg/ml,<0.031 µg/mL
same,MIC,KPN BAA-1898; [1],> 1020 µg/mL
same,MIC,"KPN BAA-1898; substance alone, read-out: MIC",> 1020 µg/mL
same,MIC ATB combined with Example 1 @8 μg/ml,ECO UFR39; with Example 1 @8 μg/ml,<0.031 µg/mL
same,MIC ATB combined with Example 1 @8 μg/ml,ECO UFR39; with Example 1 at 8 μg/ml,<0.031 µg/mL
same,MIC ATB combined with Example 7 @8 μgml,ECO UFR39; with Example 7 at 8 μg/ml,<0.031 µg/mL
same,MIC ATB combined with Example 9 @4 μg/ml,ECO UFR39; with Example 9 @4 μg/ml,<0.031 µg/mL
same,MIC ATB combined with Example 9 @4 μg/ml,ECO UFR39; with Example 9 at 4 μg/ml,<0.031 µg/mL
same,MIC ATB combined with Example 11 @8 μg/ml,ECO UFR39; with Example 11 at 8 μg/ml,<0.031 µg/mL
same,MIC ATB combined with Example 12 @8 μg/ml,ECO UFR39; with Example 12 at 8 μg/ml,<0.031 µg/mL
same,MIC ATB combined with Example 13 @8 μg/ml,ECO UFR39; with Example 13 at 8 μg/ml,<0.031 µg/mL
same,MIC ATB combined with Example 14 @8 μg/ml,ECO UFR39; with Example 14 at 8 μg/ml,<0.031 µg/mL
same,MIC ATB combined with Example 15 @4 μgml,ECO UFR39; with Example 15 at 4 μg/ml,<0.031 µg/mL
same,MIC ATB combined with Example 16 @4 μg/ml,ECO UFR39; with Example 16 at 4 μg/ml,<0.031 µg/mL
same,MIC,ECO UFR39; [1],> 1020 µg/mL
same,MIC,"ECO UFR39; substance alone, read-out: MIC",> 1020 µg/mL
same,MIC ATB combined with Example 1 @8 μg/ml,ECO 190317; with Example 1 @8 μg/ml,<0.031 µg/mL
same,MIC ATB combined with Example 1 @8 μg/ml,ECO 190317; with Example 1 at 8 μg/ml,<0.031 µg/mL
same,MIC ATB combined with Example 7 @8 μgml,ECO 190317; with Example 7 at 8 μg/ml,<0.031 µg/mL
same,MIC ATB combined with Example 9 @4 μg/ml,ECO 190317; with Example 9 @4 μg/ml,<0.031 µg/mL
same,MIC ATB combined with Example 9 @4 μg/ml,ECO 190317; with Example 9 at 4 μg/ml,<0.031 µg/mL
same,MIC ATB combined with Example 11 @8 μg/ml,ECO 190317; with Example 11 at 8 μg/ml,<0.031 µg/mL
same,MIC ATB combined with Example 12 @8 μg/ml,ECO 190317; with Example 12 at 8 μg/ml,<0.031 µg/mL
same,MIC ATB combined with Example 13 @8 μg/ml,ECO 190317; with Example 13 at 8 μg/ml,<0.031 µg/mL
same,MIC ATB combined with Example 14 @8 μg/ml,ECO 190317; with Example 14 at 8 μg/ml,<0.031 µg/mL
same,MIC ATB combined with Example 15 @4 μgml,ECO 190317; with Example 15 at 4 μg/ml,<0.031 µg/mL
same,MIC ATB combined with Example 16 @4 μg/ml,ECO 190317; with Example 16 at 4 μg/ml,<0.031 µg/mL
same,MIC,ECO 190317; [1],> 1020 µg/mL
same,MIC,"ECO 190317; substance alone, read-out: MIC",> 1020 µg/mL
same,MIC ATB combined with Example 1 @8 μg/ml,SAU 29213,0.25 µg/mL
